From patent US20090099192A1, “Substituted 1H-pyrrole-2,5-diones” (Bayer CropScience AG, priority 2004, published 2009) come the findings set out here.

Structures are written as SMILES.

This series in a line: logP determination by HPLC on reversed-phase column (C 18), EEC Directive 79/831 Annex V.A8. It counts as physicochemical. The following applies: reversed-phase C 18, 43° C., acid range (0.1% aqueous phosphoric acid, acetonitrile), marked a). How it is done: a) The logP values given in table 1 were determined in accordance with EEC Directive 79/831 Annex V.A8 by HPLC (High Performance Liquid Chromatography) on a reversed-phase column (C 18). Temperature: 43° C. (a) Mobile phases for the determination in the acid range: 0.1% aqueous phosphoric acid, acetonitrile; linear gradient from 10% acetonitrile to 90% acetonitrile—corresponding measurement results are marked a) in table 1. Calibration was carried out using unbranched alkan-2-ones (having 3 to 16 carbon atoms) with known logP values (determination of the logP values by the retention times using linear interpolation between two successive alkanones).

For `Cc1ccc(-c2ccc(Cl)cc2)cc1C1=C(O)C(=O)N(C(C)c2ccccc2Cl)C1=O` (racemic) [Example 136], the logP entry is listed as “logP = 4.75^a)”. As for `Cc1ccc(-c2ccc(Cl)cc2)cc1C1=C(O)C(=O)N(C(C)c2cccc(Cl)c2)C1=O` (racemic) [Example 141], the logP result is on record as “logP = 4.84^a)”. As to `CCOC(=O)C1(N2C(=O)C(O)=C(c3ccccc3Cl)C2=O)CCC(OC)CC1` (single isomer, unassigned) [Example 149], the logP result is listed as “logP = 2.76^a)”. Next, `CCOC(=O)C1(N2C(=O)C(O)=C(c3ccccc3Cl)C2=O)CCC(OC)CC1` (single isomer, unassigned) [Example 151]: “logP = 2.53^a)”; `Cc1cc(C)c(C2=C(OC(=O)C(C)(C)C(C)C)C(=O)N(C(C)C)C2=O)c(C)c1` [Example 20]: “logP = 5.87^a)”; `O=C1C(O)=C(c2ccccc2Cl)C(=O)N1C1CCCCC1` [Example 22]: “logP = 3.17^a)”. The same measure for `CC(C)(C)C(=O)OC1=C(c2ccccc2Cl)C(=O)N(C2CCCCC2)C1=O` [Example 23]: “logP = 5.39^a)”. `O=C1C(O)=C(c2ccccc2Cl)C(=O)N1c1ccccc1` [Example 24]: the logP result is “logP = 2.43^a)”. In the case of `O=C1C(O)=C(c2ccccc2Cl)C(=O)N1c1ccccc1C(F)(F)F` [Example 25], the logP result is “logP = 2.60^a)”. `O=C1C(O)=C(c2ccccc2Cl)C(=O)N1c1cccc(C(F)(F)F)c1` [Example 26]: the logP entry is given as “logP = 3.04^a)”. As for `O=C1C(O)=C(c2ccccc2Cl)C(=O)N1c1ccc(C(F)(F)F)cc1` [Example 27], the logP entry is “logP = 3.10^a)”. In the case of `CC(C)(C)C(=O)OC1=C(c2ccccc2Cl)C(=O)N(c2ccccc2)C1=O` [Example 28], the logP entry was “logP = 4.37^a)”.

For `CCOc1ccc(N2C(=O)C(O)=C(c3ccccc3Cl)C2=O)nn1` [Example 29], the logP result is on record as “logP = 1.82^a)”. For `O=C1C(O)=C(c2cccc(C(F)(F)F)c2)C(=O)N1CC(F)(F)F` [Example 38], the logP result is recorded as “logP = 2.70^a)”. Next, `O=C1C(O)=C(c2ccc(OC(F)(F)F)cc2)C(=O)N1CC(F)(F)F` [Example 39]: “logP = 3.04^a)”; `N#Cc1ccc(C2=C(O)C(=O)N(CC(F)(F)F)C2=O)cc1` [Example 40]: “logP = 1.94^a)”. The same measure for `O=C1C(O)=C(c2ccc(Cl)cc2)C(=O)N1CC(F)(F)F` [Example 41]: “logP = 2.82^a)”; for `O=C1C(O)=C(c2cccc(OC(F)(F)F)c2)C(=O)N1CC(F)(F)F` [Example 42]: “logP = 2.82^a)”; for `O=C1C(O)=C(c2cc(Cl)cc(Cl)c2)C(=O)N1CC(F)(F)F` [Example 43]: “logP = 2.67^a)”.

For the compound `O=C1C(O)=C(c2c(F)cccc2F)C(=O)N1CCC(F)(F)F` [Example 44], the logP result is on record as “logP = 2.14^a)”. Take `O=C1C(O)=C(c2ccc(C(F)(F)F)cc2)C(=O)N1CCC(F)(F)F` [Example 47]: the logP entry is recorded as “logP = 3.06^a)”. In the case of `O=C1C(O)=C(c2cccc(OC(F)(F)F)c2)C(=O)N1CCC(F)(F)F` [Example 48], the logP entry is recorded as “logP = 3.30^a)”. In the case of `O=C1C(O)=C(c2cc(Cl)cc(Cl)c2)C(=O)N1CCC(F)(F)F` [Example 49], the logP result is given as “logP = 2.94^a)”.

Take `O=C1C(O)=C(c2c(F)cccc2F)C(=O)N1c1ccc(OC(F)(F)F)cc1` [Example 50]: the logP result was “logP = 2.80^a)”. The same measure for `O=C1C(O)=C(c2ccccc2F)C(=O)N1c1ccc(OC(F)(F)F)cc1` [Example 51]: “logP = 3.13^a)”; for `O=C1C(O)=C(c2ccccc2Cl)C(=O)N1c1ccc(OC(F)(F)F)cc1` [Example 52]: “logP = 3.27^a)”.

As for `O=C1C(O)=C(c2cccc(C(F)(F)F)c2)C(=O)N1c1ccc(OC(F)(F)F)cc1` [Example 53], the logP result is “logP = 3.75^a)”. Take `N#Cc1ccc(C2=C(O)C(=O)N(c3ccc(OC(F)(F)F)cc3)C2=O)cc1` [Example 54]: the logP result was “logP = 2.70^a)”.

Consider `O=C1C(O)=C(c2ccc(Cl)cc2)C(=O)N1c1ccc(OC(F)(F)F)cc1` [Example 55], for which the logP entry was “logP = 3.83^a)”. As for `O=C1C(O)=C(c2cc(Cl)cc(Cl)c2)C(=O)N1c1ccc(OC(F)(F)F)cc1` [Example 57], the logP entry is listed as “logP = 3.56^a)”. On to `O=C1C(O)=C(c2c(F)cccc2F)C(=O)N1c1ccc(Cl)cc1` [Example 58], for which the logP entry is given as “logP = 2.45^a)”. Take `O=C1C(O)=C(c2ccccc2F)C(=O)N1c1ccc(Cl)cc1` [Example 59]: the logP entry is listed as “logP = 2.76^a)”. `O=C1C(O)=C(c2ccccc2Cl)C(=O)N1c1ccc(Cl)cc1` [Example 60]: the logP entry is listed as “logP = 2.89^a)”.

`O=C1C(O)=C(c2cccc(C(F)(F)F)c2)C(=O)N1c1ccc(Cl)cc1` [Example 61]: the logP entry was “logP = 3.45^a)”. In the case of `O=C1C(O)=C(c2ccc(OC(F)(F)F)cc2)C(=O)N1c1ccc(Cl)cc1` [Example 62], the logP result was “logP = 3.80^a)”. Consider `O=C1C(O)=C(c2ccc(Cl)cc2)C(=O)N1c1ccc(Cl)cc1` [Example 63], for which the logP entry is given as “logP = 3.51^a)”. For `O=C1C(O)=C(c2ccc(C(F)(F)F)cc2)C(=O)N1c1ccc(Cl)cc1` [Example 64], the logP entry was “logP = 3.35^a)”. `O=C1C(O)=C(c2cccc(OC(F)(F)F)c2)C(=O)N1c1ccc(Cl)cc1` [Example 65]: the logP entry was “logP = 3.59^a)”. The same measure for `O=C1C(O)=C(c2c(F)cccc2F)C(=O)N1c1ccc(C(F)(F)F)cc1` [Example 66]: “logP = 3.48^a)”. As for `O=C1C(O)=C(c2ccccc2F)C(=O)N1c1ccc(C(F)(F)F)cc1` [Example 67], the logP entry is “logP = 3.01^a)”. On to `O=C1C(O)=C(c2cccc(C(F)(F)F)c2)C(=O)N1c1ccc(C(F)(F)F)cc1` [Example 68], for which the logP entry is recorded as “logP = 3.59^a)”. Next, `N#Cc1ccc(C2=C(O)C(=O)N(c3ccc(C(F)(F)F)cc3)C2=O)cc1` [Example 69]: “logP = 2.80^a)”; `O=C1C(O)=C(c2ccc(Cl)cc2)C(=O)N1c1ccc(C(F)(F)F)cc1` [Example 70]: “logP = 3.70^a)”.

On to `O=C1C(O)=C(c2cccc(OC(F)(F)F)c2)C(=O)N1c1ccc(C(F)(F)F)cc1` [Example 71], for which the logP entry is listed as “logP = 3.75^a)”.

For `O=C1C(O)=C(c2cc(Cl)cc(Cl)c2)C(=O)N1c1ccc(C(F)(F)F)cc1` [Example 72], the logP entry is “logP = 3.42^a)”. Turning to `O=C1C(O)=C(c2ccccc2F)C(=O)N1c1cc(Cl)cc(Cl)c1` [Example 73], the logP entry was “logP = 3.20^a)”. In the case of `O=C1C(O)=C(c2cccc(C(F)(F)F)c2)C(=O)N1c1cc(Cl)cc(Cl)c1` [Example 75], the logP entry is listed as “logP = 3.78^a)”. With `O=C1C(O)=C(c2ccc(OC(F)(F)F)cc2)C(=O)N1c1cc(Cl)cc(Cl)c1` [Example 76], the logP entry is given as “logP = 4.15^a)”. Next, `N#Cc1ccc(C2=C(O)C(=O)N(c3cc(Cl)cc(Cl)c3)C2=O)cc1` [Example 77]: “logP = 2.80^a)”. The same measure for `O=C1C(O)=C(c2ccc(Cl)cc2)C(=O)N1c1cc(Cl)cc(Cl)c1` [Example 78]: “logP = 3.94^a)”; for `O=C1C(O)=C(c2ccc(C(F)(F)F)cc2)C(=O)N1c1cc(Cl)cc(Cl)c1` [Example 79]: “logP = 3.75^a)”. On to `O=C1C(O)=C(c2cccc(OC(F)(F)F)c2)C(=O)N1c1cc(Cl)cc(Cl)c1` [Example 80], for which the logP entry is reported as “logP = 3.94^a)”.

Regarding `Cc1cc(C)c(C2=C(O)C(=O)N(Cc3ccc(OC(F)(F)F)cc3)C2=O)c(C)c1` [Example 81], the logP entry is on record as “logP = 4.24^a)”.

As for `O=C1C(O)=C(c2c(F)cccc2F)C(=O)N1Cc1ccc(OC(F)(F)F)cc1` [Example 82], the logP entry is on record as “logP = 3.16^a)”. In the case of `O=C1C(O)=C(c2ccccc2F)C(=O)N1Cc1ccc(OC(F)(F)F)cc1` [Example 83], the logP entry was “logP = 3.45^a)”. As to `O=C1C(O)=C(c2ccccc2Cl)C(=O)N1Cc1ccc(OC(F)(F)F)cc1` [Example 84], the logP entry is reported as “logP = 3.56^a)”. `O=C1C(O)=C(c2cccc(C(F)(F)F)c2)C(=O)N1Cc1ccc(OC(F)(F)F)cc1` [Example 85]: the logP result is given as “logP = 4.15^a)”. For `O=C1C(O)=C(c2ccc(OC(F)(F)F)cc2)C(=O)N1Cc1ccc(OC(F)(F)F)cc1` [Example 86], the logP result is listed as “logP = 4.48^a)”. As for `N#Cc1ccc(C2=C(O)C(=O)N(Cc3ccc(OC(F)(F)F)cc3)C2=O)cc1` [Example 87], the logP entry is “logP = 2.85^a)”. For the compound `O=C1C(O)=C(c2ccc(Cl)cc2)C(=O)N1Cc1ccc(OC(F)(F)F)cc1` [Example 88], the logP entry was “logP = 4.27^a)”. The same measure for `O=C1C(O)=C(c2ccc(C(F)(F)F)cc2)C(=O)N1Cc1ccc(OC(F)(F)F)cc1` [Example 89]: “logP = 4.03^a)”. For `O=C1C(O)=C(c2cccc(OC(F)(F)F)c2)C(=O)N1Cc1ccc(OC(F)(F)F)cc1` [Example 90], the logP entry is reported as “logP = 4.30^a)”. For the compound `O=C1C(O)=C(c2cc(Cl)cc(Cl)c2)C(=O)N1Cc1ccc(OC(F)(F)F)cc1` [Example 91], the logP result was “logP = 4.12^a)”. For the compound `Cc1ccc(C2=C(O)C(=O)N(Cc3ccc(OC(F)(F)F)cc3)C2=O)cc1` [Example 92], the logP result is on record as “logP = 4.27^a)”. For the compound `Cc1cc(C)c(C2=C(O)C(=O)N(Cc3ccccc3F)C2=O)c(C)c1` [Example 93], the logP entry is given as “logP = 3.51^a)”.

`O=C1C(O)=C(c2c(F)cccc2F)C(=O)N1Cc1ccccc1F` [Example 94]: the logP result is listed as “logP = 2.49^a)”. With `O=C1C(O)=C(c2ccccc2F)C(=O)N1Cc1ccccc1F` [Example 95], the logP result is on record as “logP = 2.82^a)”. Consider `O=C1C(O)=C(c2cccc(C(F)(F)F)c2)C(=O)N1Cc1ccccc1F` [Example 96], for which the logP entry is “logP = 3.48^a)”.
